Measured values: patent EP0516978A1, “Enantiomers of substituted (aminophenyl)-heteroarylethylamines, a method for their preparation, and pharmaceutical compositions containing these compounds” (HOECHST AKTIENGESELLSCHAFT, priority 1991, dated 1992)

Columns and labels:
NMRI-Mäusen = experiment: CNS tolerability in the healthy animal (mouse), behavioural observation; assay type: in vivo, Maus; conditions: for Symptome: phenomena observed 3 hours after application; for Dosis, ab der eine ZNS erregende Aktivität, die als unverträglich gilt, auftritt: mouse, i.p., dose from which the behaviour-altering CNS excitation is seen
Experimental: Adulten männlichen NMRI-Mäusen werden die zu untersuchenden Substanzen in Dosen von 0,1-100 mg/kg i.p. in einem Volumen von 10 ml/kg verabreicht. Pro Versuchsdosis werden drei Tiere eingesetzt, wobei eine Gruppe als Placebo nur mit dem Lösungsmittel behandelt (Kontrolle) mitgeführt wird.
Die Placebogruppe dient dabei zur zeitgleichen Verhaltensfeststellung, parallel zur Versuchsgruppe. Sofort nach der Applikation werden die Tiere in Dreiergruppen in Beobachtungskäfige gesetzt und drei Stunden lang am ersten Tag beobachtet. Anschließend werden die Tiere gefüttert, getränkt und weitere sechs Tage, jeweils nach 24 Stunden, für eine halbe Stunde beobachtet. Dabei ergaben sich folgende Befunde: Tabelle 2

Mongolischen Gerbil = experiment: Neuroprotection after forebrain ischaemia in the gerbil (5-minute bilateral carotid artery occlusion); assay type: in vivo; conditions: treated vs. control group; for Verhaltensscore (% Änderung): 5-step neurological score over 45 min after ischaemia; for Zellnekrosen (% Änderung): 5-step histopathological score, hippocampal CA₁ region, 7 days later
From the text: Anhand der nachfolgend beschriebenen Versuchsdurchführungen (K. Rudolphi et. al, J. Cereb. Blood Flow Metab., 7:74. 1987) ergibt sich, daß die unten aufgeführten Verbindungen in der Lage sind, zerebrale Nervenzellen gegen eine schwere ischämische Schädigung zu schützen.
Bei 20 männlichen Mongolischen Gerbils werden unter Halothan-Narkose durch beidseitigen Verschluß der A. Carotis mittels Aneurysmaclips eine 5-minütige Ischämie des Vorderhirns mit anschließender Rezirkulation erzeugt. Die Tiere werden 45 Minuten lang nach der Ischämie beobachtet und das Ausmaß der neurologischen Symptome mittels eines 5-stufigen Verhaltensscores bestimmt. 7 Tage später werden die Tiere unter Halothan-Narkose dekapitiert, die Gehirne in Carnoy-Lösung immersionsfixiert und das Ausmaß des Neuronenschadens in der CA₁-Region des Hippocampus mit Hilfe eines 5-stufigen histopathologischen Scores "blind" bestimmt. Die Prüfsubstanzen werden je einer Gruppe von 10 Gerbils intraperitoneal oder per os 15 Minuten vor der Ischämie verabreicht. Pro Testsubstanz wird eine ischämische Kontrollgruppe von ebenfalls 10 Tieren mit dem jeweiligen Lösungsmittel behandelt. Die Ergebnisse sind in Tabelle 6 als % Änderung des mittleren neurologsichen Verhaltensscores bzw. histopathologischen Scores (Summe der individuellen Scores/Anzahl der Tiere) der behandelten vs. Kontrollgruppe zusammengefaßt. Tabelle 1
Je höher der Verhaltensscore (-% Änderungen), desto besser ist die Erholung der Tiere nach Ischämie.

[1] = 30 mg/kg ip. 15 min before 5-min forebrain ischaemia
[2] = 30 mg/kg ip. 15 min before ischaemia

**Q.** Which results are given for `CNC(Cc1ccccc1N)c1sccc1C` (single isomer, unassigned; (+)) [(+)II, 2-Amino-N-methyl-α-(3-methyl-2-thienyl)benzylethanamin]?
**A.** Symptome (NMRI-Mäusen; dose 0,1-0,3 mg/kg i.p.): o. B.; Symptome (NMRI-Mäusen; dose 1,0-3,0 mg/kg i.p.): kurzandauernde Erregung; Symptome (NMRI-Mäusen; dose 10-100 mg/kg i.p.): vermehrter Putztrieb, Unruhe, Erregung, Taumeln; Dosis, ab der eine ZNS erregende Aktivität, die als unverträglich gilt, auftritt (NMRI-Mäusen; listed as (+)-Form): ≥ 10 mg/kg i. p.; Verhaltensscore (% Änderung) (Mongolischen Gerbil; [1]): -51 % Änderung; Zellnekrosen (% Änderung) (Mongolischen Gerbil; [2]): -90 % Änderung

**Q.** Which Symptome (NMRI-Mäusen; dose 0,01-0,3 mg/kg i.p.) does the source give for `CNC(Cc1ccccc1N)c1sccc1C` (single isomer, unassigned; (-)) [(-)II, 2-Amino-N-methyl-α-(3-methyl-2-thienyl)benzylethanamin] here?
**A.** o. B.

**Q.** What about the Symptome (NMRI-Mäusen; dose 1,0-3,0 mg/kg i.p.) of the same compound?
**A.** o. B.

**Q.** What about the Symptome (NMRI-Mäusen; dose 10-100 mg/kg i.p.) of the same compound?
**A.** Unruhe, vermehrter Putztrieb

**Q.** What about the “Dosis, ab der eine ZNS erregende Aktivität, die als unverträglich gilt, auftritt” value (NMRI-Mäusen; listed as (-)-Form) of the same compound?
**A.** ≥ 100 mg/kg i. p.

**Q.** What about the “Verhaltensscore (% Änderung)” value (Mongolischen Gerbil; [1]) of the same compound?
**A.** -32 % Änderung

**Q.** What about the “Verhaltensscore (% Änderung)” value (Mongolischen Gerbil; 60 mg/kg ip. 15 min before 5-min forebrain ischaemia) of the same compound?
**A.** -75 % Änderung

**Q.** And the “Zellnekrosen (% Änderung)” value (Mongolischen Gerbil; 60 mg/kg ip. 15 min before ischaemia)?
**A.** -23 % Änderung

**Q.** `CNC(Cc1ccccc1N)c1sccc1C` (racemic) [Razemisch II, 2-Amino-N-methyl-α-(3-methyl-2-thienyl)benzylethanamin] was tested. Which Symptome (NMRI-Mäusen; dose 0,1-3 mg/kg i.p.) did it give?
**A.** vermehrter Putztrieb

**Q.** What about the Symptome (NMRI-Mäusen; dose 1,0-3,0 mg/kg i.p.) of the same compound?
**A.** Unruhe, Erregung, vermehrter Putztrieb

**Q.** What about the Symptome (NMRI-Mäusen; dose 10-100 mg/kg i.p.) of the same compound?
**A.** Taumeln, vermehrter Putztrieb, Unruhe, Erregung

**Q.** What about the “Dosis, ab der eine ZNS erregende Aktivität, die als unverträglich gilt, auftritt” value (NMRI-Mäusen) of the same compound?
**A.** ≥ 10 mg/kg i. p.

**Q.** What about the “Verhaltensscore (% Änderung)” value (Mongolischen Gerbil; [1]) of the same compound?
**A.** -15 % Änderung

**Q.** And the “Zellnekrosen (% Änderung)” value (Mongolischen Gerbil; [2])?
**A.** -75 % Änderung
